Experimental findings from patent US20140045205A1, “GLUTAMYL AMINOPEPTIDASE AS A MARKER OF RENAL DAMAGE” (UNIVERSIDAD DE GRANADA, priority 2010, published 2014) are described below.

For one data set, the system named is AlaAp. The data set can be described thus: Urinary AlaAp activity in rats, fluorometric analysis with alanyl-β-naphthylamide. The data set is classed as in vivo, Wistar rats. As to conditions: for AlaAp urinary activity change: rats, 6 weeks treatment (8% NaCl in diet; methimazole 300 mg/l drinking water), versus control group. Here is the method:
(§1) All treatments were maintained during 6 weeks. […] The GluAp, […] […] A blank was performed in duplicate for each sample.

For a further data set, the system named is AspAp. The data set can be described thus: Urinary AspAp activity in rats, fluorometric analysis with aspartyl-β-naphthylamide. The data set is classed as in vivo, Wistar rats. Here is the method:
as §1

The subject of the next data set is CysAp. Description: Urinary CysAp activity in rats, fluorometric analysis with cystinyl-β-naphthylamide. The data set is classed as in vivo, Wistar rats. As to the method: as §1
For data set [1] the following is noted: rats, 8% NaCl in diet, 6 weeks.
Protocol: (§2) On the one hand, 42 male Wistar rats of 250 g in weight from the animal house of the University of Valladolid were distributed in 6 groups (n=7) with the following treatments: Control, Salt (8% NaCl in the diet), Hypothyroid (methimazole, 300 mg/l in drinking water), Hypothyroid+Salt, Hyperthyroid (daily s.c. injection of thyroxine (T4) 200 μg.kg^−1.day^−1), and Hyperthyroid+Salt.
Data set [2] can be described thus: Proteinuria in rats (Bio-Rad DC Protein Assay kit, Lowry's method).
Protocol: as §2
(§3) At the end of the experiment, and after a 2-day period of adaptation to the metabolic cages, each animal was introduced in a metabolic cage during 24 hours. The dieresis was determined, and the urine was centrifuged for 10 min at 1,000 g, aliquoted and frozen at −80° C. until its use.
Proteinuria was determined using a commercial kit from Bio-Rad (DC Protein Assay kit) based on Lowry's method.
Another data set has as its system GluAp. The data set can be described thus: Urinary GluAp activity in rats, fluorometric analysis with glutamyl-β-naphthylamide. As to conditions: for GluAp urinary activity change: rats, 6 weeks treatment (8% NaCl in diet; methimazole 300 mg/l drinking water; T4 200 μg/kg/day s.c.), versus control group.
The mark [3] stands for this setting: 8% salt given simultaneously to hyperthyroid (T4) rats, 6 weeks, over the value of the hyperthyroid rats.
Where [4] appears, read: rats, 6 weeks treatment (8% NaCl in diet; methimazole 300 mg/l drinking water; T4 200 μg/kg/day s.c.), versus control group.
Setting [5] is: methimazole 300 mg/l given to rats treated with 8% salt (Hypothyroid+salt), 6 weeks, in comparison with rats treated with salt.
Where [6] appears, read: rats, 6 weeks treatment (methimazole 300 mg/l drinking water), versus control group.

Protocol for GluAp: as §2, §3
The GluAp, AlaAp, AspAp and CysAp activities were determined in duplicate by a fluorometric analysis using glutamyl-, alanyl-, aspartyl- and cystinyl-β-naphthylamide as substrates, respectively.
The substrates had been previously dissolved in 1 ml of DMSO and stored at -20° C.
The quantity of β-naphthylamine released as a result of the aminopeptidase activities was measured fluorometrically at an emission wavelength of 412 nm with excitation at 345 nm, taking a measurement of the fluorescence after 60 minutes, after stopping the reaction with 90 μl of 0.1 M acetate buffer.
A blank was performed in duplicate for each sample. […] The fluorescence difference between both measurements was quantified using a standard curve of β-naphthylamine dissolved in water at the concentrations of 12.5, 25, 50, 100 and 200 nmol/ml 90 μl of the incubation solution corresponding to each enzyme without the substrate were added to 20 μl of this solution, they were incubated during 60 minutes at 37° C., and 90 μl of 0.1 M acetate buffer were added. It was verified that the presence of the substrate in the incubation solutions in no way modified the fluorescence of the standard. All measurements were made in duplicate, and the linearity of the fluorescence obtained in the curve range was verified (0-200 nmol/ml).
Both for the determinations of the samples and for the blanks, reaction blanks were performed containing 20 μl of distilled water, 90 μl of incubation solution with or without substrate, respectively, and 90 μl of sodium acetate.
The specific activity of each aminopeptidase was expressed as nanomoles of hydrolyzed substrate per minute and per mg of creatinine. The linearity of the fluorescence obtained was verified with respect to hydrolysis time and creatinine content in a same sample.

Take `[Cl-].[Na+]` [Salt, NaCl]: in the data set on AlaAp (setting [3]), the “rise in AlaAp activity” value is “more than tenfold”. For the same compound, the “AlaAp urinary activity change” value with AlaAp is “significant increase”. Moreover, the “rise in AspAp activity” value with AspAp (setting [3]) is recorded as “around fivefold”. Besides, the “rise in CysAp activity” value in the data set on CysAp (setting [3]) was “around fivefold”. For the same compound, the plasma creatinine change result in data set [1] is given as “not accompanied”. Moreover, the proteinuria change result in data set [2] (8% salt given simultaneously to hyperthyroid (T4) rats, 6 weeks) is “great increase”; in data set [2] (setting [4]), “not accompanied with proteinuria”. For the same compound, the “rise in GluAp activity” value with GluAp (setting [3]) was “more than tenfold”. For the same compound, the “GluAp urinary activity change” value in the data set with GluAp is recorded as “significant increase”.

In the case of `Cn1cc[nH]c1=S` [methimazole, reference compound], in the data set on AlaAp (setting [5]), the AlaAp activity change result is on record as “decrease”. The “AlaAp urinary activity change” value in the data set with AlaAp was “significantly decreased”. Besides, the “AspAp urinary activity change” value in the data set on AspAp (setting [6]) is on record as “no modification”. Also, the “CysAp urinary activity change” value in the data set on CysAp (setting [6]) is “no modification”. In data set [2] (setting [4]), the proteinuria change result is recorded as “no modification”. In addition, the GluAp activity change entry with GluAp (setting [5]) was “decrease”. Besides, the “GluAp urinary activity change” value in the data set with GluAp is reported as “no modification”.
